From publication PMC12447755, “β-Lactamase cleavable antimicrobial peptide–drug conjugates” (Chemical Science, 2025)
Converted amounts (≈) assume the structure as drawn. Where two headings read alike, the source gives them in different places. Where a SMILES comes first, the peptide text is derived from it. Where no end group is shown, it is not given here.

Assays:
[1] = test system: P. aeruginosa strain PAO1; conditions: for MIC PAO1: PAO1, 16 h
[2] = test system: P. aeruginosa strain PA14; conditions: for MIC PA14: PA14, 16 h
[3] = test system: Pseudomonas aeruginosa strain PAO1; assay: Initial susceptibility testing at a fixed concentration; type: cell-based; design: key: Tick (✓) represents OD600 comparable to no-growth control; cross (✗) represents OD600 comparable to growth control without any peptide; conditions: 256 μg mL−1 of peptide, overnight incubation, OD600 compared with growth and no-growth controls

C[C@H](NC(=O)[C@H](Cc1c[nH]c2ccccc12)NC(=O)[C@H](CCCCN)NC(=O)[C@H](CS)NC(=O)[C@@H](N)Cc1ccccc1)C(=O)N[C@@H](Cc1ccccc1)C(=O)N[C@@H](CCCCN)C(=O)N[C@@H](Cc1c[nH]c2ccccc12)C(=O)N[C@@H](CS)C(=O)N[C@@H](CCCCN)C(=O)N[C@@H](CCCCN)C(N)=O [P2] (H-FCKWAFKWCKK-NH2)
MIC PAO1 [1]: 32 µg/mL (≈ 21.7 µM)
MIC PA14 [2]: 32 µg/mL (≈ 21.7 µM)
Inh (inhibition) [3]: ✗

CC(=O)N[C@H](C(=O)N[C@@H](CC(C)C)C(=O)N[C@@H](CCCCN)C(=O)N[C@@H](CCC(N)=O)C(=O)N[C@@H](Cc1ccccc1)C(=O)N[C@H]1CSCCc2cc(nc(NCCCc3ccccc3)n2)CCSC[C@@H](C(=O)N[C@H](C(=O)N[C@@H](CCCCN)C(N)=O)C(C)C)NC(=O)[C@H](Cc2c[nH]c3ccccc23)NC(=O)[C@H](CCCCN)NC(=O)CNC(=O)[C@H](C(C)C)NC(=O)CNC(=O)[C@H](CCCCN)NC1=O)[C@@H](C)O [P1-1] (HELM PEPTIDE1{[ac].T.L.K.Q.F.C.K.G.V.G.K.W.C.V.K.[am]}|CHEM1{[c1ccc(CCCNc2nc(CC[*:1])cc(CC[*:2])n2)cc1]}$PEPTIDE1,CHEM1,7:R3-1:R1|PEPTIDE1,CHEM1,14:R3-1:R2$$$V2.0)
Inh (inhibition) [3]: ✗

CC(=O)N[C@@H](Cc1c[nH]c2ccccc12)C(=O)N[C@H]1CSCCc2cc(nc(NCCCc3ccccc3)n2)CCSC[C@@H](C(=O)N[C@@H](Cc2ccccc2)C(N)=O)NC(=O)CNC(=O)[C@H](CCCNC(=N)N)NC(=O)[C@H](Cc2ccccc2)NC(=O)[C@H](CCCCN)NC(=O)[C@H](CCCCN)NC(=O)[C@H](CC(C)C)NC1=O [P3-1] (HELM PEPTIDE1{[ac].W.C.L.K.K.F.R.G.C.F.[am]}|CHEM1{[c1ccc(CCCNc2nc(CC[*:1])cc(CC[*:2])n2)cc1]}$PEPTIDE1,CHEM1,3:R3-1:R1|PEPTIDE1,CHEM1,10:R3-1:R2$$$V2.0)
Inh (inhibition) [3]: ✗

RFRRLRKKWRKRLKKI-NH2 [P4a, reference compound]
Inh (inhibition) [3]: ✓

CC[C@H](C)[C@H](NC(=O)[C@H](CCCCN)NC(=O)[C@H](CCCCN)NC(=O)[C@H](CS)NC(=O)[C@H](CCCNC(=N)N)NC(=O)[C@H](CCCCN)NC(=O)[C@H](CCCNC(=N)N)NC(=O)[C@H](Cc1c[nH]c2ccccc12)NC(=O)[C@H](CCCCN)NC(=O)[C@H](CCCCN)NC(=O)[C@H](CS)NC(=O)[C@H](CC(C)C)NC(=O)[C@H](CCCNC(=N)N)NC(=O)[C@H](CCCNC(=N)N)NC(=O)[C@H](Cc1ccccc1)NC(=O)[C@@H](N)CCCNC(=N)N)C(N)=O [P4] (H-RFRRLCKKWRKRCKKI-NH2)
Inh (inhibition) [3]: ✗

CC[C@H](C)[C@H](NC(=O)[C@H](CCCCN)NC(=O)[C@H](CCCCN)NC(=O)[C@@H]1CSCCc2cc(nc(NCCCc3ccccc3)n2)CCSC[C@H](NC(=O)[C@H](CC(C)C)NC(=O)[C@H](CCCNC(=N)N)NC(=O)[C@H](CCCNC(=N)N)NC(=O)[C@H](Cc2ccccc2)NC(=O)[C@@H](N)CCCNC(=N)N)C(=O)N[C@@H](CCCCN)C(=O)N[C@@H](CCCCN)C(=O)N[C@@H](Cc2c[nH]c3ccccc23)C(=O)N[C@@H](CCCNC(=N)N)C(=O)N[C@@H](CCCCN)C(=O)N[C@@H](CCCNC(=N)N)C(=O)N1)C(N)=O [P4-1] (HELM PEPTIDE1{R.F.R.R.L.C.K.K.W.R.K.R.C.K.K.I.[am]}|CHEM1{[c1ccc(CCCNc2nc(CC[*:1])cc(CC[*:2])n2)cc1]}$PEPTIDE1,CHEM1,6:R3-1:R1|PEPTIDE1,CHEM1,13:R3-1:R2$$$V2.0)
Inh (inhibition) [3]: ✓

C[C@@H]1NC(=O)[C@H](Cc2c[nH]c3ccccc23)NC(=O)[C@H](CCCCN)NC(=O)[C@@H](NC(=O)[C@@H](N)Cc2ccccc2)CSCCc2cc(nc(NCCCc3ccccc3)n2)CCSC[C@@H](C(=O)N[C@@H](CCCCN)C(=O)N[C@@H](CCCCN)C(N)=O)NC(=O)[C@H](Cc2c[nH]c3ccccc23)NC(=O)[C@H](CCCCN)NC(=O)[C@H](Cc2ccccc2)NC1=O [P2-1] (HELM PEPTIDE1{F.C.K.W.A.F.K.W.C.K.K.[am]}|CHEM1{[c1ccc(CCCNc2nc(CC[*:1])cc(CC[*:2])n2)cc1]}$PEPTIDE1,CHEM1,2:R3-1:R1|PEPTIDE1,CHEM1,9:R3-1:R2$$$V2.0)
MIC PAO1 [1]: 16 µg/mL (≈ 9.2 µM)
MIC PA14 [2]: 16 µg/mL (≈ 9.2 µM)
MIC of peptide-staple combinations (heat map) (P. aeruginosa): best activity
MIC (P. aeruginosa; 18 h): 8 to 16 µg/mL
Inh (inhibition) [3]: ✓

CCCCCCCC(=O)NCC(=O)N[C@H]1CSCCc2cc(nc(NCCCc3ccccc3)n2)CCSC[C@@H](C(=O)N[C@@H](CC(C)C)C(N)=O)NC(=O)[C@H](CCCCN)NC(=O)[C@H](CCCCN)NC(=O)[C@H]([C@@H](C)CC)NC(=O)[C@H](Cc2ccccc2)NC(=O)[C@H](CCCCN)NC(=O)[C@H](CC(C)C)NC1=O [P5-1] (HELM PEPTIDE1{[CCCCCCCC(=O)[*:2]].G.C.L.K.F.I.K.K.C.L.[am]}|CHEM1{[c1ccc(CCCNc2nc(CC[*:1])cc(CC[*:2])n2)cc1]}$PEPTIDE1,CHEM1,3:R3-1:R1|PEPTIDE1,CHEM1,10:R3-1:R2$$$V2.0)
Inh (inhibition) [3]: ✗

CC(C)C[C@@H]1NC(=O)[C@H](CCCNC(=N)N)NC(=O)[C@H](Cc2c[nH]cn2)NC(=O)[C@@H](NC(=O)[C@H](CC(C)C)NC(=O)[C@H](CCCCN)NC(=O)[C@H](CCCNC(=N)N)NC(=O)[C@H](Cc2ccccc2)NC(=O)[C@H](CC(C)C)NC(=O)[C@@H](N)CC(N)=O)CSCCc2cc(nc(NCCCc3ccccc3)n2)CCSC[C@@H](C(=O)N[C@@H](Cc2ccccc2)C(=O)NCC(=O)N[C@@H](Cc2ccc(O)cc2)C(=O)N[C@H](C(=O)N[C@@H](CC(C)C)C(=O)N[C@@H](CCCNC(=N)N)C(N)=O)[C@@H](C)O)NC(=O)[C@H](CCCNC(=N)N)NC(=O)[C@H](CCCNC(=N)N)NC(=O)[C@H](Cc2ccccc2)NC1=O [P7-1] (HELM PEPTIDE1{N.L.F.R.K.L.C.H.R.L.F.R.R.C.F.G.Y.T.L.R.[am]}|CHEM1{[c1ccc(CCCNc2nc(CC[*:1])cc(CC[*:2])n2)cc1]}$PEPTIDE1,CHEM1,7:R3-1:R1|PEPTIDE1,CHEM1,14:R3-1:R2$$$V2.0)
Inh (inhibition) [3]: ✗

C[C@@H]1NC(=O)[C@H](Cc2c[nH]c3ccccc23)NC(=O)[C@H](CCCCN)NC(=O)[C@@H](NC(=O)[C@@H](N)Cc2ccccc2)CSCCc2cc(nc(NCCCC(=O)N[C@@H](C(=O)N[C@@H]3C(=O)N4C(C(=O)O)=C(COC(=O)N5CCN(c6cc7c(cc6F)c(=O)c(C(=O)O)cn7C6CC6)CC5)CS[C@H]34)c3ccccc3)n2)CCSC[C@@H](C(=O)N[C@@H](CCCCN)C(=O)N[C@@H](CCCCN)C(N)=O)NC(=O)[C@H](Cc2c[nH]c3ccccc23)NC(=O)[C@H](CCCCN)NC(=O)[C@H](Cc2ccccc2)NC1=O [P2-21]
PAO1 MIC ([1]; PAO1, 18 h): 27 µM
PAO1 MIC ([1]; Table S5, altered linking region between peptide and cephalosporin): 64 µg/mL
PA14 MIC ([2]; PA14, 18 h): 13 µM
PA14 MIC ([2]; Table S5): 32 µg/mL

CC(C)C[C@H](NC(=O)[C@H](Cc1c[nH]cn1)NC(=O)[C@H](CCCCN)NC(=O)[C@H](CS)NC(=O)[C@H](Cc1ccc(O)cc1)NC(=O)[C@H](CC(N)=O)NC(=O)[C@H](CCC(N)=O)NC(=O)[C@@H](NC(=O)[C@H](Cc1c[nH]c2ccccc12)NC(=O)[C@@H](N)CCCCN)C(C)C)C(=O)NCC(=O)N[C@@H](CCCNC(=N)N)C(=O)N[C@@H](CCCCN)C(=O)N[C@@H](CS)C(=O)N[C@@H](Cc1c[nH]cn1)C(=O)N[C@H](C(=O)N[C@@H](CC(C)C)C(=O)N[C@@H](CCCCN)C(=O)N[C@H](C(N)=O)[C@@H](C)O)[C@@H](C)O [P6] (H-KWVQNYCKHLGRKCHTLKT-NH2)
Inh (inhibition) [3]: ✗

KWVQNYMKHLGRKAHTLKT-NH2 [P6a, reference compound]
Inh (inhibition) [3]: ✓

CC[C@H](C)CCCCC(=O)N[C@@H](CCN)C(=O)N[C@H](C(=O)N[C@@H](CCN)C(=O)N[C@H]1CCNC(=O)[C@H]([C@@H](C)O)NC(=O)[C@H](CCN)NC(=O)[C@H](CCN)NC(=O)[C@H](CC(C)C)NC(=O)[C@@H](Cc2ccccc2)NC(=O)[C@H](CCN)NC1=O)[C@@H](C)O [Polymyxin B, reference compound] (HELM PEPTIDE1{[CC[C@H](C)CCCCC(=O)[*:2]].[Dab].T.[Dab].[Dab].[Dab].[dF].L.[Dab].[Dab].T}$PEPTIDE1,PEPTIDE1,5:R3-11:R2$$$V2.0; N-terminus assumed; bridges inferred)
MIC for PAO1 ([1]; PAO1, 18 h): 1.7 µM
PAO1 MIC ([1]; PAO1, 18 h): 0.83 µM
PAO1 MIC ([1]; Table S3, initial MIC values): 2 µg/mL
PAO1 MIC ([1]; Table S4, cephalosporin-based staple 8 at different positions): 1 µg/mL
MIC for PA14 ([2]; PA14, 18 h): 0.83 µM
PA14 MIC ([2]; Table S3, initial MIC values): 1 µg/mL
PA14 MIC ([2]; Table S4): 0.83 µM
